According to ChEMBL document CHEMBL1136110, “2,3,4,5-tetrahydro- and 2,3,4,5,11,11a-hexahydro-1H-[1,4]diazepino[1,7-a]indoles: new templates for 5-HT(2C) agonists” (Bioorg Med Chem Lett, 2003):

Key:
[1] = target: 5-hydroxytryptamine receptor 2A (Homo sapiens, UniProt P28223); experiment: Binding affinity against 5-hydroxytryptamine 2A receptor using [125I]DOI radioligand.
[2] = target: T1, 5-hydroxytryptamine receptor 2C (Homo sapiens, UniProt P28335); experiment: Binding affinity against 5-hydroxytryptamine 2C receptor using [125I]DOI radioligand.
T1 sequence (P28335 whole entry): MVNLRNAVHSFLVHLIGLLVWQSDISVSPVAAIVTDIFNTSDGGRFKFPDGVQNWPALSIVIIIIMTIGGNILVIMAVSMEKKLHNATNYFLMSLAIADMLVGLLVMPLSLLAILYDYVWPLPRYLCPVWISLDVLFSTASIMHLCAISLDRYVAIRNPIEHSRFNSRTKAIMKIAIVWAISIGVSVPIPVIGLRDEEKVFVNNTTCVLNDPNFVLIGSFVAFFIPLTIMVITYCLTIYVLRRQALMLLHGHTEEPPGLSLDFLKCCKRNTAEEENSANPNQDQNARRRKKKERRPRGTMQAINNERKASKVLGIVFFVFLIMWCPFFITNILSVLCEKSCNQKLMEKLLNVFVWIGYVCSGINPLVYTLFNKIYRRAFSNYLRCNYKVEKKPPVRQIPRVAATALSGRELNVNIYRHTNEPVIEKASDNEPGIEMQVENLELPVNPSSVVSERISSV

[3] = target: T2, 5-hydroxytryptamine receptor 2C (Homo sapiens) (UniProt P28335); experiment: Intrinsic efficacy against 5-hydroxytryptamine 2C receptor
T2 sequence (whole entry): T1 sequence (P28335 whole entry)

[4] = target: Serotonin 2 receptors; 5-HT2a & 5-HT2c (Homo sapiens) (UniProt P28223+P28335); experiment: Selectivity ratio of binding affinity of 5-hydroxytryptamine 2A receptor to that of 5-hydroxytryptamine 2C receptor.; assay type: protein assay
Serotonin 2 receptors; 5-HT2a & 5-HT2c (Homo sapiens), sequence (P28223 whole entry, looked up, one chain of several): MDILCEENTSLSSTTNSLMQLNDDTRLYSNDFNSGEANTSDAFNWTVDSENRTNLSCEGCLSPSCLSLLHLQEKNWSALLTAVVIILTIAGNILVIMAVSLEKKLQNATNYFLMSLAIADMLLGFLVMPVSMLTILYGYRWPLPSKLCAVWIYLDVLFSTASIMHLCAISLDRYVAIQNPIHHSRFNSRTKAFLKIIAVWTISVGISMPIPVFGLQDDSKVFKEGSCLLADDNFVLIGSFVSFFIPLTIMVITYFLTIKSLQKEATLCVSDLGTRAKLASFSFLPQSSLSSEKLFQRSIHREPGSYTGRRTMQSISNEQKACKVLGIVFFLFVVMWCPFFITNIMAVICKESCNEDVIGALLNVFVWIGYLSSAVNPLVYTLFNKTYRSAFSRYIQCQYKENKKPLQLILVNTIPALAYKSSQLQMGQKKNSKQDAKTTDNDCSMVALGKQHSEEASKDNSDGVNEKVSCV

[5] = system: Mus musculus; experiment: Anxiolytic activity (latency to fight) in mice after administration (0.3 mg/kg) using shock-induced aggression assay; assay type: functional
[6] = system: Mus musculus; experiment: Ataxia (time on rotaing rod) in mice after administration (0.3 mg/kg) using standard Rotarod assay; assay type: functional
[7] = system: Mus musculus; experiment: Anxiolytic activity (latency to fight) in mice after administration (3.0 mg/kg) using shock-induced aggression assay; assay type: functional
[8] = system: Mus musculus; experiment: Ataxia (time on rotaing rod) in mice after administration (3 mg/kg) using standard Rotarod assay; assay type: functional
[9] = target: T1, 5-hydroxytryptamine receptor 2C; experiment: Binding affinity of compound towards 5-hydroxytryptamine 2C receptor
[10] = system: Mus musculus; experiment: Anxiolytic activity (latency to fight) in mice after administration (3 mg/kg) using shock-induced aggression assay; assay type: functional
[11] = system: Mus musculus; experiment: Ataxia (time on rotaing rod) in mice after administration (30 mg/kg) using standard Rotarod assay; assay type: functional
[12] = system: Mus musculus; experiment: Anxiolytic activity (latency to fight) in mice after administration (30 mg/kg) using shock-induced aggression assay; assay type: functional

5-hydroxytryptamine receptor 2A, sequence (P28223 whole entry): as the sequence (P28223 whole entry, looked up, one chain of several) above

SMILES	Ki [1] [nM]	Ki [2] [nM]	Selectivity ratio [4]	further results
CN1CCc2cc3ccccc3n2CC1	28	13	–	Intrinsic efficacy [3]: 49%
Clc1c2n(c3ccccc13)CCNCC2	6.5	4.7	1.4	–
NC(=O)c1c2n(c3ccccc13)CCNCC2	46	74	0.6	–
CCCN1CCc2cc3ccccc3n2CC1	56	64	–	–
FC(F)(F)c1ccccc1-c1cccc2c1N1CCNCCC1C2 (single isomer, unassigned; (-)) [listing 1 of 2 here]	45	14	–	–
CCOc1ccccc1-c1ccc2c(c1)CC1CCNCCN21 (configuration not stated)	> 10000	4810	–	–
Cc1ccccc1-c1cccc2c1N1CCNCCC1C2 (stereo in doubt; (+)) [listing 1 of 2 here]	–	–	6.37	–
COc1ccc(Cl)cc1-c1cc(Cl)cc2c1N1CCNCCC1C2 (configuration not stated)	756	793	0.95	–
Cc1ccccc1-c1cccc2c1N1CCNCCC1C2 (stereo in doubt; (+)) [listing 2 of 2 here]	191	30	–	–
Cc1ccccc1-c1cc(Cl)cc2c1N1CCNCCC1C2 (configuration not stated)	88	43	2.05	–
Cc1ccccc1-c1cccc2c1N1CCNCCC1C2 (stereo in doubt; (-)) [listing 1 of 2 here]	136	39	–	–
N#Cc1c2n(c3ccccc13)CCNCC2	83	85	1	–
CCOc1ccccc1-c1cccc2c1N1CCNCCC1C2 (stereo in doubt; 20a)	440	110	–	–
Cc1nnc2n1-c1ccc(Cl)cc1C(c1ccccc1)=NC2 [ALPRAZOLAM]	–	–	–	Latency [5]: 11.9 s; Latency [6]: 74.2 s; Latency [7]: 35.2 s; Latency [8]: 14.5 s
CCOc1ccccc1-c1cccc2c1N1CCNCCC1C2 (single isomer, unassigned; (-)) [listing 1 of 2 here]	980	196	–	–
CCOc1ccccc1-c1cc(Cl)cc2c1N1CCNCCC1C2 (stereo in doubt) [listing 1 of 2 here]	354	178	–	–
CCOc1ccccc1-c1cc(Cl)cc2c1N1CCNCCC1C2 (single isomer, unassigned; (+)) [listing 1 of 2 here]	116	32	–	–
c1ccc2c3c([nH]c2c1)CCNCC3	10	6.1	–	Intrinsic efficacy [3]: 66%
C[C@H](N)Cn1ccc2ccc(F)cc21	–	–	–	Ki [9]: 4 nM
FC(F)(F)c1ccccc1-c1cccc2c1N1CCNCCC1C2 (single isomer, unassigned; (+)) [listing 1 of 2 here]	107	59	–	–
NC(=O)C(=O)c1c2n(c3ccccc13)CCNCC2	316	136	2.3	–
CCOc1ccccc1-c1cccc2c1N1CCNCCC1C2 (single isomer, unassigned; (+)) [listing 1 of 2 here]	–	–	4.45	–
CCOc1ccccc1-c1cc(Cl)cc2c1N1CCNCCC1C2 (stereo in doubt; 22a)	218	54	–	–
c1cc2c3c(c1)c1c(n3CCO2)CCNCC1	4.1	4.3	–	Intrinsic efficacy [3]: 105%

SMILES	Ki [1] [nM]	Ki [2] [nM]	Selectivity ratio [4]	further results
FC(F)(F)c1ccccc1-c1cccc2c1N1CCNCCC1C2 (single isomer, unassigned; (+)) [listing 2 of 2 here]	–	–	1.81	–
CCOc1ccccc1-c1cccc2c1N1CCNCCC1C2 (single isomer, unassigned; (+)) [listing 2 of 2 here]	458	103	–	–
Cn1c2c(c3ccccc31)CCNCC2 [PNU-22394]	19	19	–	Intrinsic efficacy [3]: 83%
Fc1ccc(-c2cc(Cl)cc3c2N2CCNCCC2C3)cc1 (configuration not stated)	146	310	0.47	–
Clc1cc2c(c(-c3ccccc3Cl)c1)N1CCNCCC1C2 (configuration not stated)	102	57	1.79	–
CCOc1ccccc1-c1cc(Cl)cc2c1N1CCNCCC1C2 (single isomer, unassigned; (+)) [listing 2 of 2 here]	–	–	3.63	–
CCOc1ccccc1-c1cc(Cl)cc2cc3n(c12)CCNCC3	32	112	–	–
CCOc1ccccc1-c1cc(Cl)cc2c1N1CCNCCC1C2 (stereo in doubt) [listing 2 of 2 here]	–	–	1.99	–
Clc1ccccc1-c1cccc2c1N1CCNCCC1C2 (configuration not stated)	82	23	3.57	–
Fc1ccccc1-c1cc(Cl)cc2c1N1CCNCCC1C2 (configuration not stated)	141	223	0.63	–
CCOc1ccc(-c2cc(Cl)cc3c2N2CCNCCC2C3)cc1 (configuration not stated)	182	265	0.69	–
CCOc1ccccc1-c1ccc2c(c1)N1CCNCCC1C2 (configuration not stated)	1580	932	–	–
O=Cc1c2n(c3ccccc13)CCNCC2	29	12	2.4	–
CCOc1cccc(-c2cc(Cl)cc3c2N2CCNCCC2C3)c1 (configuration not stated)	233	472	0.49	–
Cc1ccccc1-c1cccc2c1N1CCNCCC1C2 (stereo in doubt; (-)) [listing 2 of 2 here]	–	–	3.45	–
c1ccc2c(c1)CC1CCNCCN21 (configuration not stated)	805	721	–	–
Clc1ccc(Cl)c(-c2cc(Cl)cc3c2N2CCNCCC2C3)c1 (configuration not stated)	70	160	0.44	–
Cc1c2n(c3ccccc13)CCNCC2	12	6.8	1.8	–
CCN1CCc2cc3ccccc3n2CC1	30	38	–	Intrinsic efficacy [3]: 66%
Clc1ccc(-c2cc(Cl)cc3c2N2CCNCCC2C3)c(Cl)c1 (configuration not stated)	426	386	1.1	–
FC(F)(F)c1ccccc1-c1cccc2c1N1CCNCCC1C2 (single isomer, unassigned; (-)) [listing 2 of 2 here]	–	–	3.21	–
c1ccc2c(c1)cc1n2CCNCC1	18	4.8	3.8	Latency [10]: 12.8 s; Latency [11]: 87.6 s; Latency [12]: 27 s; Intrinsic efficacy [3]: 80%; Latency [8]: 102 s
O=C(c1c2n(c3ccccc13)CCNCC2)C(F)(F)F	40	54	0.7	–
CCOc1ccccc1-c1cccc2c1N1CCNCCC1C2 (single isomer, unassigned; (-)) [listing 2 of 2 here]	–	–	5	–
